Reference: US8263530B2, “Agrochemical formulations containing microcapsules” (priority 2006, dated 2012)

Assay: Storage stability: content of active ingredient in water dispersible granules
Type: physicochemical
Experimental: A test on the storage stability was performed with the following results:
Comparison of stability of fluoroxypyr and metsulfuon-methyl when a WG granulation is made according to U.S. Pat. No. 5,688,743 (Dow) and the encapsulation step has been omitted and replaced by a joint milling of the corresponding amount of fluoroxypyr and metsulfuron-methyl: […]

[1] = FXY + MET 26 WG (Fluroxypyr 250 g/kg + Metsulfuron 10 g/kg WG, microencapsulated fluroxypyr), test item FXY-MSF_0604, column without storage
[2] = FXY + MET 26 WG (microencapsulated fluroxypyr), GLASS, 0 ± 2° C., after storage
[3] = FXY + MET 26 WG (microencapsulated fluroxypyr), GLASS, 54 ± 2° C., after storage
[4] = FXY + MET 26 WG (microencapsulated fluroxypyr), PLASTIC, 0 ± 2° C., after storage
[5] = FXY + MET 26 WG (microencapsulated fluroxypyr), PLASTIC, 54 ± 2° C., after storage
[6] = Fluroxypyr 250 g/kg + Metsulfuron 10 g/kg WG WITHOUT microencapsulation of fluroxypyr (joint milling, per US 5,688,743), test item FXY-MSF_060/, column without storage
[7] = WG WITHOUT microencapsulation of fluroxypyr, GLASS, 0 ± 2° C., after storage
[8] = WG WITHOUT microencapsulation of fluroxypyr, GLASS, 54 ± 2° C., after storage
[9] = WG WITHOUT microencapsulation of fluroxypyr, PLASTIC, 0 ± 2° C., after storage
[10] = WG WITHOUT microencapsulation of fluroxypyr, PLASTIC, 54 ± 2° C., after storage

Structure (SMILES): Nc1c(Cl)c(F)nc(OCC(=O)O)c1Cl [Fluroxypyr]
- Content of active ingredient [1]: 39.37 wt-%
- Content of active ingredient [2]: 38.65 wt-%
- Content of active ingredient [3]: 38.57 wt-%
- Content of active ingredient [4]: 38.51 wt-%
- Content of active ingredient [5]: 38.35 wt-%
- Content of active ingredient [6]: 39.41 wt-%
- Content of active ingredient [7]: 34.44 wt-%
- Content of active ingredient [8]: 28.02 wt-%
- Content of active ingredient [9]: 36.34 wt-%
- Content of active ingredient [10]: 16.05 wt-%

Structure (SMILES): COc1nc(C)nc(NC(=O)NS(=O)(=O)c2ccccc2C(=O)O)n1 [Metsulfuron]
- Content of active ingredient [1]: 1.18 wt-%
- Content of active ingredient [2]: 1.18 wt-%
- Content of active ingredient [3]: 1.18 wt-%
- Content of active ingredient [4]: 1.19 wt-%
- Content of active ingredient [5]: 1.18 wt-%
- Content of active ingredient [6]: 1.16 wt-%
- Content of active ingredient [7]: 0.35 wt-%
- Content of active ingredient [8]: 0.21 wt-%
- Content of active ingredient [9]: 0.39 wt-%
- Content of active ingredient [10]: 0.24 wt-%
